Article PMC6917776, “Discovery of a chemical probe for PRDM9” (Nature Communications, 2019)
Where two headings read alike, the source gives them in different places.

Key:
[1] = target: T1, GLP (Homo sapiens, UniProt Q9H9B1); assay: Methyltransferase selectivity assay (SPA); assay type: biochemical; conditions: EHMT1, Exp1, Exp2
T1 construct: purchased Structural Genomics Consortium (SGC Toronto) in-house methyltransferase panel
T1 sequence (Q9H9B1 1-1298): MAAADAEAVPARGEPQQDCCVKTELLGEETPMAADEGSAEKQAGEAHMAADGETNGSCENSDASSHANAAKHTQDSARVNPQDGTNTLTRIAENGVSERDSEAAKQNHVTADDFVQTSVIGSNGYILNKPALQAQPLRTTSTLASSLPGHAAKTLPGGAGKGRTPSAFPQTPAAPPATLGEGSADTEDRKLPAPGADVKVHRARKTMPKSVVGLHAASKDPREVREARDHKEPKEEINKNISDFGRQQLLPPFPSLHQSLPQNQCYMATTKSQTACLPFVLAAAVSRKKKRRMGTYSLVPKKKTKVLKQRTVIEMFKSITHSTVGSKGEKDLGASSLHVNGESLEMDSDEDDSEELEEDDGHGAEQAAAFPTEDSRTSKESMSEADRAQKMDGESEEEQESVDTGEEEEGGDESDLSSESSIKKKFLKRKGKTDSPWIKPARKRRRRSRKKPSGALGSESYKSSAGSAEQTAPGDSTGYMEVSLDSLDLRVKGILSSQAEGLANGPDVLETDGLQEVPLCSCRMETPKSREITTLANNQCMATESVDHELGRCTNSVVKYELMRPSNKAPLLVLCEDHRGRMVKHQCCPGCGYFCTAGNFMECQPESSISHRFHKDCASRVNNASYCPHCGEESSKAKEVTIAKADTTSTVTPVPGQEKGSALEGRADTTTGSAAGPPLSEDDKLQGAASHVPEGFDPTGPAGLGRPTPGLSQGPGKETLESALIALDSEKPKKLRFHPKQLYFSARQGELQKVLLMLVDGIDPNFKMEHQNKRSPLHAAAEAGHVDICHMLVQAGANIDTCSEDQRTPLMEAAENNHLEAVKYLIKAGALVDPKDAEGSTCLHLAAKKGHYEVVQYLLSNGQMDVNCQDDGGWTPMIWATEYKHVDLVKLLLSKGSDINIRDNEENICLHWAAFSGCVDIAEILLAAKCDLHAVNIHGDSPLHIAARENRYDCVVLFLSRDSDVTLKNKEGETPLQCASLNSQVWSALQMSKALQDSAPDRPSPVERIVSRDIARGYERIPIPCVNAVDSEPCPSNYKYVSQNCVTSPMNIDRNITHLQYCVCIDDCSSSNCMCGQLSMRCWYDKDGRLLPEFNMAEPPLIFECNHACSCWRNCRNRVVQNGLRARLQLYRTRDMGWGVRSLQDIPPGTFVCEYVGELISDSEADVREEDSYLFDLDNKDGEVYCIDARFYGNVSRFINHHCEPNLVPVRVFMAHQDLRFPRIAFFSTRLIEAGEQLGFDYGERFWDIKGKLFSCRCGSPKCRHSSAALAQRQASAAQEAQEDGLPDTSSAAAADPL
Protocol: (§1) Selectivity against methyltransferases were determined as described previously. Details of the assays are described in the supplementary methods.
(§2) Methyltransferase selectivity assay1
(§3) The effect of chemical probes and negative controls on the methyltransferase activities of protein, DNA and RNA methyltransferases was tested by radiometric assays using 3H-SAM. For proteins such as MLL1 trimeric, MLL3 pentameric, EZH1 (PRC2) pentameric, and EZH2 (PRC2) trimeric complexes, as well as G9a, GLP, SUV39H1, SUV39H2, SUV420H1, SUV420H2, SETD2, SETD8, SETDB1, SETD7, PRMT1, PRMT3, PRMT4, PRMT5/ MEP50 complex, PRMT6, PRMT7, PRMT8, PRMT9, PRDM9, SMYD2, SMYD3, DNMT1, and BCDIN3D the incorporation of a tritium-labeled methyl group into biotinylated substrate was monitored using scintillation proximity assay (SPA). Briefly, a 10 µL reaction containing 3H-SAM and substrate at concentrations close to the apparent Km values for each enzyme (balanced conditions) was prepared. The reactions were quenched with 10 µL of 7.5 M guanidine hydrochloride; 180 µL of 20 mM Tris buffer (pH 8.0) were added, and the mixture was transferred to a 96-well FlashPlate and incubated for 1 h. The counts per minute (CPM) was measured on a TopCount plate reader. The CPM in the absence of compound or enzyme was defined as 100% activity and background (0%), respectively, for each dataset. […]

[2] = target: T2, SETD8 (Homo sapiens, UniProt Q9NQR1); assay: Methyltransferase selectivity assay (SPA); assay type: biochemical
T2 construct: purchased Structural Genomics Consortium (SGC Toronto) in-house methyltransferase panel
T2 sequence (Q9NQR1 1-393): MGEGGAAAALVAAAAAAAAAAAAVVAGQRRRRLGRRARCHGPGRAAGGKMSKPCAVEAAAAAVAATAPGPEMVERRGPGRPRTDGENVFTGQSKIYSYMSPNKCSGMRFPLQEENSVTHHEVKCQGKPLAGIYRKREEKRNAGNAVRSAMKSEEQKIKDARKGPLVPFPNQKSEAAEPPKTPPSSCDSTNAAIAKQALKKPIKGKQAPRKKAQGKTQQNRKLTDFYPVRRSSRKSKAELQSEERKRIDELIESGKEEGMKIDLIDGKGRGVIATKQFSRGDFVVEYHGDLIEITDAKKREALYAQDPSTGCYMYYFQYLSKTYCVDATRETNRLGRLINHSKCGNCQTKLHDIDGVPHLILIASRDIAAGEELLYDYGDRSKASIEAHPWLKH
Protocol: as §1, §2, §3

| Compound | activity at 1 µM ([1]; 1µM compound) [%] | activity at 10 µM ([1]; 10µM compound) [%] | Activity % ([1]; 10µM compound, 10 µM) [%] | activity at 1 µM ([2]; 1µM compound, Exp1, Exp2) [%] | Activity % ([2]; 1µM compound, Exp1, Exp2, 1 µM) [%] | activity at 10 µM ([2]; 10µM compound, Exp1, Exp2) [%] | Activity % ([2]; 10µM compound, Exp1, Exp2, 10 µM) [%] | Activity % ([1]; 1µM compound, 1 µM) [%] | activity at 1 µM ([1]; 1µM compound, read-out: Activity %) [%] | activity at 10 µM ([1]; 10µM compound, read-out: Activity %) [%] | activity at 1 µM ([2]; 1µM compound, Exp1, Exp2, read-out: Activity %) [%] | activity at 10 µM ([2]; 10µM compound, Exp1, Exp2, read-out: Activity %) [%] |
| --- | --- | --- | --- | --- | --- | --- | --- | --- | --- | --- | --- | --- |
| COc1cc(OC)cc(-c2noc(N3CCN(C)C4(CCN(c5ccccc5)CC4)C3)n2)c1 [MRK-740 -NC] | 100 | 95 | 98 | 107 | 95 | 94 | 92 | – | – | – | – | – |
| COc1cc(OC)cc(-c2noc(N3CCN(C)C4(CCN(c5ccnc(C)c5)CC4)C3)n2)c1 [MRK-740] | – | – | 84 | – | – | – | – | 100 | 93 | 94 | 99 | 101 |
